Literature values in US6241994A, “Solid TCMTB formulations” (Buckman Laboratories International, Inc., priority 1998, dated 2001).

Key:
[1] = unstable at temperatures greater than the value
[2] = for pH above which the substance decomposes: decomposition at a pH above the value

N#CSCSC#N [MTC, methylene bisthiocyanate]
solubility in most of organic solvents (most of organic solvents): soluble | temperature above which considered unstable [1]: greater than 100 °C | stability in acidic systems ([2]; acidic systems, ambient temperature): stable | pH above which the substance decomposes [2]: above 7.5

N#CSCSc1nc2ccccc2s1 [TCMTB, 2-(thiocyanomethylthio)-benzothiazole]
solubility in water (in water): about 0.033 g/l | pH above which the substance decomposes [2]: above 8.0
